We go through 12 molecules from patent US20250114345A1, “COMPOUNDS AND COMPOSITIONS AS CBP/P300 DEGRADERS AND USES THEREOF” (Oncopia Therapeutics, Inc. d/b/a/ SK Life Science Labs, priority 2023, published 2025).

The structures appear in SMILES notation.

For one assay, the target named is T1, p300 (Homo sapiens, UniProt Q09472).
T1 construct: host or cells: A549 P300 HiBit cells
The assay can be described thus: P300 degradation, HiBit technology in A549 P300 HiBit cells (2 h). It counts as cell-based. To be noted: 2 hrs post treatment; for Dmax: A549, A549 P300 HiBit cells. In outline:
(§1)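 Degradation potency and Dmax came from HiBiT luminescence in tagged A549 cells treated with serially diluted compound (DMSO stocks at 10 mM) after overnight equilibration in F-12K with 10% heat-inactivated FBS.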

For the next assay, the target named is T2, CBP (Homo sapiens, UniProt Q92793).
T2 construct: host or cells: A549 CBP HiBit cells
T2 sequence (Q92793 whole entry): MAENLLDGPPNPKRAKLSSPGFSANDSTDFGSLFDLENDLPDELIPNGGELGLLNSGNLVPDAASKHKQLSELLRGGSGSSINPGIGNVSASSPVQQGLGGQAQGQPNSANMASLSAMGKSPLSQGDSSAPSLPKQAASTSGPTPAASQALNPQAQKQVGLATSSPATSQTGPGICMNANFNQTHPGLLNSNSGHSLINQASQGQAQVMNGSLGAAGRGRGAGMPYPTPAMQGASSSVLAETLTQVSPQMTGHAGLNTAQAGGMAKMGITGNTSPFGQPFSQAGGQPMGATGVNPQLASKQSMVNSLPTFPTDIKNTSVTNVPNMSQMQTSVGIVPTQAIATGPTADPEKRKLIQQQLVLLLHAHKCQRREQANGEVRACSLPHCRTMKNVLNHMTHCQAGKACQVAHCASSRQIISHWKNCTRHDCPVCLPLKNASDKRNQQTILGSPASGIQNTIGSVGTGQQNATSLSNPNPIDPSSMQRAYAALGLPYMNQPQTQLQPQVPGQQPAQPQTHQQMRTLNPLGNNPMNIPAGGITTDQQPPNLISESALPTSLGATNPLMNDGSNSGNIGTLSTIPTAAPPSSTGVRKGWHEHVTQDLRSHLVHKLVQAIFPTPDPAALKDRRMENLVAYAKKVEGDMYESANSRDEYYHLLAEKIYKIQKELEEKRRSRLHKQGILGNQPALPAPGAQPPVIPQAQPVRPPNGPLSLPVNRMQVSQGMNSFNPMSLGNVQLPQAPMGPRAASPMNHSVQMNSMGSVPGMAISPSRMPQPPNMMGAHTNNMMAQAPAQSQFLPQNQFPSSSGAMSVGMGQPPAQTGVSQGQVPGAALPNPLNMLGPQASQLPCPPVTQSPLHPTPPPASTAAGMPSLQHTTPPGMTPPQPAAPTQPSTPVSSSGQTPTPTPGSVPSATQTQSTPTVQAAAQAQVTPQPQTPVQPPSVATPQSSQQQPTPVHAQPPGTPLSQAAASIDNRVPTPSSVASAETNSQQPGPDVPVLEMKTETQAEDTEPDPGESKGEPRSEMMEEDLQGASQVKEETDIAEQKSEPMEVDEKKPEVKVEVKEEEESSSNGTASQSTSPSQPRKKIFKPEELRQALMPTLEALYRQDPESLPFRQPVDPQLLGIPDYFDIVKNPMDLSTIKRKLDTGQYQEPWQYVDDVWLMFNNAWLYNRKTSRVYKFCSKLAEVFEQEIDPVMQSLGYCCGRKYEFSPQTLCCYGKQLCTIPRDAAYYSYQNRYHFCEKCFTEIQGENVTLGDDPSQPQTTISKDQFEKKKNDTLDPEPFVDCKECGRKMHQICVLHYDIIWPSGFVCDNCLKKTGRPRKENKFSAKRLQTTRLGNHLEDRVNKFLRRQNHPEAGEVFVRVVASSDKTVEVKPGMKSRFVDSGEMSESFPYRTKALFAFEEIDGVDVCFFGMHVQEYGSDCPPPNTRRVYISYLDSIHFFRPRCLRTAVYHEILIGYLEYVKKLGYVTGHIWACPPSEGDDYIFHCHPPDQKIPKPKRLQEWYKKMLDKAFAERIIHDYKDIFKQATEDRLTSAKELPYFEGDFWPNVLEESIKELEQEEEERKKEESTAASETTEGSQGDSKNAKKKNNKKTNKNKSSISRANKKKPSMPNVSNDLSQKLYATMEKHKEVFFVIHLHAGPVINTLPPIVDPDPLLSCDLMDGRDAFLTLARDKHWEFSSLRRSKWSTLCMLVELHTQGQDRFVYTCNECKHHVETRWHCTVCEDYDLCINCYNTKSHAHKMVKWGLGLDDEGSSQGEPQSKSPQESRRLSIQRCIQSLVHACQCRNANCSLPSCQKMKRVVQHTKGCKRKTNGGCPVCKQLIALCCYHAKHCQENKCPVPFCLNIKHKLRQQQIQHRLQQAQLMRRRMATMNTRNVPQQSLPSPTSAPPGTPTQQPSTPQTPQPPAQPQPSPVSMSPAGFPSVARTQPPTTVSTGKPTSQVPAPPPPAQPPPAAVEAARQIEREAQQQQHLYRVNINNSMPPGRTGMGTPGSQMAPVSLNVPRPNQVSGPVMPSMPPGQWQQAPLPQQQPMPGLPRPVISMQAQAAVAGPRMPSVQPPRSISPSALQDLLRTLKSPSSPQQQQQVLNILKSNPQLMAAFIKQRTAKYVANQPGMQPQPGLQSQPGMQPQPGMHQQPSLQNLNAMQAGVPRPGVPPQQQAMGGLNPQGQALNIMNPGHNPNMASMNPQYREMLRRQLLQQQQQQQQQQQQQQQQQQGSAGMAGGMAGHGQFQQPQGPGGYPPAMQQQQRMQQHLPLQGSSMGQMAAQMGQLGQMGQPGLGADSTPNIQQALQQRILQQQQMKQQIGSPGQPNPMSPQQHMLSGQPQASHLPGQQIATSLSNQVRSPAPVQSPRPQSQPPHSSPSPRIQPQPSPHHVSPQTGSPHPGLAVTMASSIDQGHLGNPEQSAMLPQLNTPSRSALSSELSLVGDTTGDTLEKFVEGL
The assay can be described thus: CBP degradation, HiBit technology in A549 CBP HiBit cells (24 h). To be noted: 24 hrs post treatment. It counts as cell-based. In short, it runs like this:
as §1
(In general: The HiBiT peptide binds its large partner to form an active luciferase.)

T1 sequence (Q09472 whole entry): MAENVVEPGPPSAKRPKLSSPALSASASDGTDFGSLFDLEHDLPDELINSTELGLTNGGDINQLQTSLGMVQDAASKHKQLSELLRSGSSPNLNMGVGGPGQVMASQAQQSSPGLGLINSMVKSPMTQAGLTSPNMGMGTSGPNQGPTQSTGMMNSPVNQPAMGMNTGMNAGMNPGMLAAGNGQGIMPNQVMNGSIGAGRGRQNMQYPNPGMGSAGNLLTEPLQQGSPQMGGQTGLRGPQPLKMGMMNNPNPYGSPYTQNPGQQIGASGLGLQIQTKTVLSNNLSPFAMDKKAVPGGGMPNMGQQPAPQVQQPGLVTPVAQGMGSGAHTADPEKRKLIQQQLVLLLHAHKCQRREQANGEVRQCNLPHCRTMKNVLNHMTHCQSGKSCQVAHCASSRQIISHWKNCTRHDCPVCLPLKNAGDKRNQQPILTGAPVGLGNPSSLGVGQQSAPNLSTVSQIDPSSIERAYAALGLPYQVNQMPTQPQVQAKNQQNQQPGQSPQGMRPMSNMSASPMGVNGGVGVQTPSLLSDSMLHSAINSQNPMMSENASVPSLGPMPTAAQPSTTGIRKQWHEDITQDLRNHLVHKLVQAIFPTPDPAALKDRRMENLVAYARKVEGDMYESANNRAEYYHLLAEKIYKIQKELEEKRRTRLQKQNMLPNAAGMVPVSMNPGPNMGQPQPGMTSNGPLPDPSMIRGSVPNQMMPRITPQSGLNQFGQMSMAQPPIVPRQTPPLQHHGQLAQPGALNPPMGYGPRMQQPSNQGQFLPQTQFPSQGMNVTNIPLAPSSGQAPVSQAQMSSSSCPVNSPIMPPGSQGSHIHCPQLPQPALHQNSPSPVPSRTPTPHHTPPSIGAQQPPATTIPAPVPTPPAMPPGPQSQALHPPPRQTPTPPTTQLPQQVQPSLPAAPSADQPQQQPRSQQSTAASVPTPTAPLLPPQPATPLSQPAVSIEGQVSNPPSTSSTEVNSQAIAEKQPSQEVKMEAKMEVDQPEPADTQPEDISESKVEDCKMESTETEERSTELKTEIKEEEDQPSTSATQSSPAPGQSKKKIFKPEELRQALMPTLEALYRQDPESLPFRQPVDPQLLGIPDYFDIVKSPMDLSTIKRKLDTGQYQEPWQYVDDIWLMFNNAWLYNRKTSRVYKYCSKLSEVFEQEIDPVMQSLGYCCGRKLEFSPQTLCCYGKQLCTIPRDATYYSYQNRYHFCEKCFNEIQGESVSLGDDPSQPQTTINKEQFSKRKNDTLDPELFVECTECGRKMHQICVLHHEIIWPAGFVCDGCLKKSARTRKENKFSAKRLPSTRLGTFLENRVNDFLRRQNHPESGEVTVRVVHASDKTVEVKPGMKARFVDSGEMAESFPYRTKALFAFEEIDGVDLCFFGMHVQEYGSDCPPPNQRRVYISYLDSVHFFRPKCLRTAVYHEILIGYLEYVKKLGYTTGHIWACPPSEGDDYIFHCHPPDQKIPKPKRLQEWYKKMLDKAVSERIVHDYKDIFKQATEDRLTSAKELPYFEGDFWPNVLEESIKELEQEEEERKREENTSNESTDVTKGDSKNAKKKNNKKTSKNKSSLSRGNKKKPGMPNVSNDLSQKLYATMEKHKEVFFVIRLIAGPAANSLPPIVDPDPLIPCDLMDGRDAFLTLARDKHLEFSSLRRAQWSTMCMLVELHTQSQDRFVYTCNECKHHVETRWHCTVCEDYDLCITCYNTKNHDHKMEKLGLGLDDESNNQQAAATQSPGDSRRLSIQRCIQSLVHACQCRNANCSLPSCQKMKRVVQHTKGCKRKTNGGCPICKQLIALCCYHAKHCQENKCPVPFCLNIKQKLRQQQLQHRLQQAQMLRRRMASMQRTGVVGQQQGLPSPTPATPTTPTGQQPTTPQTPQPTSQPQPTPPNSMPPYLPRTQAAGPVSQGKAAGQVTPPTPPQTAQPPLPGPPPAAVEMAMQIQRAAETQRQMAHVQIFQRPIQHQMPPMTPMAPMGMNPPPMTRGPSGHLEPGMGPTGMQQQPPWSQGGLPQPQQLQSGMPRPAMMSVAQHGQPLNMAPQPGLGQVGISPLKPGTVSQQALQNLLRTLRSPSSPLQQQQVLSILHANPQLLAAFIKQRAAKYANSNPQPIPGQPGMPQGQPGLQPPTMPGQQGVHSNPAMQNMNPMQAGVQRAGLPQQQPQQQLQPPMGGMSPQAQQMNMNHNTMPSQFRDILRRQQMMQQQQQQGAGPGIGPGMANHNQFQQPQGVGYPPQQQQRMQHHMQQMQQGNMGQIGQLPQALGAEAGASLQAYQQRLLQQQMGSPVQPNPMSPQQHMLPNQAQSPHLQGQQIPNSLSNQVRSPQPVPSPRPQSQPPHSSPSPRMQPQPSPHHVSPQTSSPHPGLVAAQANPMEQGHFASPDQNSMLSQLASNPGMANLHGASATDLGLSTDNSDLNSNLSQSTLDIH

By Dmax is commonly meant the largest share of the target that was removed. High values mean a fuller loss of target, low ones a partial loss of target. For orientation: DC50 means the concentration at which degradation of the target reaches its halfway point. Higher therefore signals degradation only at high concentration. For `Cc1cc2c(N3CCCc4nc(-c5ccc(C(=O)NCC#Cc6oc7cccc(C8CCC(=O)NC8=O)c7c6F)nc5)ncc43)cc(C3CCOCC3)cc2n(C)c1=O` (stereo not drawn) [Example B60, 5-(5-(1,3-dimethyl-2-oxo-7-(tetrahydro-2H-pyran-4-yl)-1,2-dihydroquinolin-5-yl)-5,6,7,8-tetrahydropyrido[3,2-d]pyrimidin-2-yl)-N-(3-(4-(2,6-dioxopiperidin-3-yl)-3-fluorobenzo-furan-2-yl)prop-2-yn-1-yl)picolinamide], the greatest degradation seen (Dmax) is > 80% on p300 and < 20% on CBP. Besides, the figures for the 50% degradation concentration (DC50) on p300 (A549 P300 HiBit cells) and at CBP were 1 to 9.9 nM and > 1000 nM, respectively.
Taken in the same sequence, the figures for `CC(C)c1cc(-c2cccc3cc(-c4ccc(C(=O)NC/C=C/c5cc(NC6CCC(=O)NC6=O)nn5C)nc4)ncc23)cc2c1n(C)c(=O)n2C` (stereo not drawn) [Example A16, (E)-N-(3-(3-((2,6-Dioxopiperidin-3-yl)amino)-1-methyl-1H-pyrazol-5-yl)allyl)-5-(8-(7-isopropyl-1,3-dimethyl-2-oxo-2,3-dihydro-1H-benzo[d]imidazol-5-yl)isoquinolin-3-yl)picolinamide] were 20 to 39%, < 20%, 1 to 9.9 nM and > 1000 nM.
With `Cc1cc(-c2ncc3c(n2)OCCN3c2ccc3c(c2)n(C)c(=O)n3C)cnc1C(=O)NCC#Cc1ccc2occ(C3CCC(=O)NC3=O)c2c1` (stereo not drawn) [Example A93, 5-(5-(1,3-dimethyl-2-oxo-2,3-dihydro-1H-benzo[d]imidazol-5-yl)-6,7-dihydro-5H-pyrimido[4,5-b][1,4]oxazin-2-yl)-N-(3-(3-(2,6-dioxopiperidin-3-yl)benzofuran-5-yl)prop-2-yn-1-yl)-3-methylpicolinamide], at p300 (A549 P300 HiBit cells), the DC50 was in the range of 10 to 99 nM and the “P300 A549 2 h HiBit DMax (%)” value is reported as “D (“D”: 20-39%)”. In addition, at CBP, the “CBP A549 24 h HiBit DMax (%)” value was “E (“E”: < 20%)” and the DC50 was > 1000 nM.
With `Cc1cc(-c2ncc3c(n2)OCCN3c2ccc3c(c2)n(C)c(=O)n3C)cnc1C(=O)NCC#Cc1cc2c([C@@H]3CCC(=O)NC3=O)cccc2o1` [Example A175, (S)-5-(5-(1,3-dimethyl-2-oxo-2,3-dihydro-1H-benzo[d]imidazol-5-yl)-6,7-dihydro-5H-pyrimido[4,5-b] [1,4]oxazin-2-yl)-N-(3-(4-(2,6-dioxo-piperidin-3-yl)benzofuran-2-yl)prop-2-yn-1-yl)-3-methylpicolinamide], the Dmax on p300 is > 80%; at CBP it was < 20%. Moreover, the values for the DC50 on p300 (A549 P300 HiBit cells) and at CBP were 10 to 99 nM and > 1000 nM, respectively.
Taken in the same sequence, the figures for `Cc1cc(N2CCOc3nc(-c4ccc(C(=O)NCC#Cc5cc6c(C7CCC(=O)NC7=O)cccc6o5)nc4)ncc32)cc2c1n(C)c(=O)n2C` (stereo not drawn) [Example A199, N-(3-(4-(2,6-dioxo-piperidin-3-yl)benzofuran-2-yl)prop-2-yn-1-yl)-5-(5-(1,3,7-trimethyl-2-oxo-2,3-dihydro-1H-benzo[d]imidazol-5-yl)-6,7-dihydro-5H-pyrimido[4,5-b] [1,4]oxazin-2-yl)picolinamide] were > 80%, < 20%, 1 to 9.9 nM and 100 to 999 nM.
Taken in the same sequence, the figures for `Cc1cc(-c2ncc3c(n2)OCCN3c2ccc3c(c2)n(C)c(=O)n3C)cnc1C(=O)NCC#Cc1cc2ccnc(C3CCC(=O)NC3=O)c2o1` (stereo not drawn) [Example A251, 5-(5-(1,3-dimethyl-2-oxo-2,3-dihydro-1H-benzo[d]imidazol-5-yl)-6,7-dihydro-5H-pyrimido[4,5-b][1,4]oxazin-2-yl)-N-(3-(7-(2,6-dioxopiperidin-3-yl)furo[2,3-c]pyridin-2-yl)prop-2-yn-1-yl)-3-methylpicolinamide] were 60 to 79%, < 20%, 10 to 99 nM and > 1000 nM.
The like results for `CC(C)c1cc(-c2cccc3cc(-c4ccc(C(=O)NCC#Cc5cc6c(C7CCC(=O)NC7=O)cccc6o5)nc4)ncc23)cc2c1n(C)c(=O)n2C` (stereo not drawn) [Example A197, N-(3-(4-(2,6-dioxo-piperidin-3-yl)benzofuran-2-yl)prop-2-yn-1-yl)-5-(8-(7-isopropyl-1,3-dimethyl-2-oxo-2,3-dihydro-1H-benzo [d]imidazol-5-yl)isoquinolin-3-yl)picolinamide] were, in that order, > 80%, < 20%, 1 to 9.9 nM and > 1000 nM.
As for `Cc1cc(-c2cc3cccc(-c4cc(C(C)C)c5c(c4)n(C)c(=O)n5C)c3cn2)cnc1C(=O)NCC#Cc1cccc(NC23CC(C2)C(=O)NC3=O)c1` [Example A177, N-(3-(3-((2,4-dioxo-3-azabicyclo[3.1.1]heptan-1-yl)amino)phenyl)prop-2-yn-1-yl)-5-(8-(7-isopropyl-1,3-dimethyl-2-oxo-2,3-dihydro-1H-benzo[d]imidazol-5-yl)isoquinolin-3-yl)-3-methylpicolinamide], the Dmax at p300 is > 80%; at CBP it was < 20%. The DC50 is 10 to 99 nM at p300 (A549 P300 HiBit cells) and > 1000 nM on CBP.
The like results for `CC(C)c1cc(-c2cccc3cc(-c4ccc(C(=O)NCC#Cc5cnc6c(c5)c(C5CCC(=O)NC5=O)nn6C)nc4)ncc23)cc2c1n(C)c(=O)n2C` (stereo not drawn) [Example A221, N-(3-(3-(2,6-dioxo-piperidin-3-yl)-1-methyl-1H-pyrazolo [3,4-b]pyridin-5-yl)prop-2-yn-1-yl)-5-(8-(7-isopropyl-1,3-dimethyl-2-oxo-2,3-dihydro-1H-benzo[d]imidazol-5-yl)isoquinolin-3-yl)picolinamide] were, in that order, > 80%, < 20%, 1 to 9.9 nM and > 1000 nM.
Taken in the same sequence, the figures for `CCN(c1cnc(-c2cnc(C(=O)NCC#Cc3ccc4occ(C5CCC(=O)NC5=O)c4c3)c(C)c2)nc1)c1cc(C(C)C)c2c(c1)n(C)c(=O)n2C` (stereo not drawn) [Example A70, N-(3-(3-(2,6-dioxopiperidin-3-yl)benzofuran-5-yl)prop-2-yn-1-yl)-5-(5-(ethyl(7-isopropyl-1,3-dimethyl-2-oxo-2,3-dihydro-1H-benzo[d]imidazol-5-yl)amino)pyrimidin-2-yl)-3-methylpicolinamide] were > 80%, < 20%, 1 to 9.9 nM and > 1000 nM.
The like results for `CC(C)c1cc(N2CCOc3cc(-c4ccc(C(=O)NCC#Cc5ccc6occ(C7CCC(=O)NC7=O)c6c5)nc4)ncc32)cc2c1n(C)c(=O)n2C` (stereo not drawn) [Example A58, N-(3-(3-(2,6-dioxopiperidin-3-yl)benzofuran-5-yl)prop-2-yn-1-yl)-5-(4-(7-isopropyl-1,3-dimethyl-2-oxo-2,3-dihydro-1H-benzo[d]imidazol-5-yl)-3,4-dihydro-2H-pyrido[4,3-b][1,4]oxazin-7-yl)picolinamide] were, in that order, > 80%, < 20%, 1 to 9.9 nM and > 1000 nM.
Regarding `Cc1cc(-c2cc3cccc(-c4cc5c(c(N6CCOCC6)n4)n(C)c(=O)n5C)c3cn2)cnc1C(=O)NCC#Cc1ccc2occ(C3CCC(=O)NC3=O)c2c1` (stereo not drawn) [Example A150, 5-(8-(1,3-dimethyl-4-morpholino-2-oxo-2,3-dihydro-1H-imidazo[4,5-c]pyridin-6-yl)isoquinolin-3-yl)-N-(3-(3-(2,6-dioxopiperidin-3-yl)benzofuran-5-yl)prop-2-yn-1-yl)-3-methylpicolinamide], the Dmax is > 80% at p300 and < 20% at CBP. Also, the values for the DC50 at p300 (A549 P300 HiBit cells) and on CBP were 1 to 9.9 nM and > 1000 nM, respectively.
